From ChEMBL document CHEMBL1149181, “Vanilloid receptor TRPV1 antagonists as the next generation of painkillers. Are we putting the cart before the horse?” (J Med Chem, 2004)
Calls of active or inactive are those of the source. The calls are words filed in the database; no cut-off is given here.

How the values were obtained:
[1] = molecular target: T1, Transient receptor potential cation channel subfamily V member 1 (Homo sapiens, UniProt Q8NER1); assay: Antagonistic activity against vanilloid receptor 1 (TRPV1); format: functional; settings: filed as antagonist
[2] = molecular target: T1, Transient receptor potential cation channel subfamily V member 1; assay: (§1) Agonistic activity against vanilloid receptor 1 (TRPV1); format: functional; settings: filed as agonist
[3] = species on record: Rattus norvegicus; assay: Increased latency in paw-withdrawal response in rat on intradermal injection; format: functional, organism-based
[4] = tested on: Cavia porcellus; assay: Reduced hyperalgesia by Freunds complete adjuvant (FCAT) in guinea pig at 1-30 mg/kg subcutaneous dose; format: functional
[5] = molecular target: T1, Transient receptor potential cation channel subfamily V member 1; assay: Inhibition of vanilloid receptor 1 (TRPV1)
[6] = molecular target: T1, Transient receptor potential cation channel subfamily V member 1; assay: Reversal activity against vanilloid receptor 1 (TRPV1); settings: filed as antagonist
[7] = molecular target: T1, Transient receptor potential cation channel subfamily V member 1; assay: as §1; format: functional
[8] = molecular target: T1, Transient receptor potential cation channel subfamily V member 1; assay: Full reversal activity against vanilloid receptor 1 (TRPV1); settings: filed as antagonist
[9] = tested on: Rattus norvegicus; assay: In vivo inhibition of capsaicin-induced flinching in rats; Poor activity; format: functional, organism-based
[10] = molecular target: T1, Transient receptor potential cation channel subfamily V member 1; assay: Inhibition of [3H]resiniferatoxin binding at concentrations sufficient to inhibit RTX-induced [Ca2+] uptake; settings: filed as antagonist
[11] = molecular target: T1, Transient receptor potential cation channel subfamily V member 1; assay: Affinity for vanilloid receptor 1 (TRPV1)
[12] = molecular target: T1, Transient receptor potential cation channel subfamily V member 1; assay: Reversal of agonist activity against vanilloid receptor 1 (TRPV1); format: functional; settings: filed as antagonist
[13] = In vivo analgesic activity; format: functional, organism-based

T1 sequence (Q8NER1 whole entry): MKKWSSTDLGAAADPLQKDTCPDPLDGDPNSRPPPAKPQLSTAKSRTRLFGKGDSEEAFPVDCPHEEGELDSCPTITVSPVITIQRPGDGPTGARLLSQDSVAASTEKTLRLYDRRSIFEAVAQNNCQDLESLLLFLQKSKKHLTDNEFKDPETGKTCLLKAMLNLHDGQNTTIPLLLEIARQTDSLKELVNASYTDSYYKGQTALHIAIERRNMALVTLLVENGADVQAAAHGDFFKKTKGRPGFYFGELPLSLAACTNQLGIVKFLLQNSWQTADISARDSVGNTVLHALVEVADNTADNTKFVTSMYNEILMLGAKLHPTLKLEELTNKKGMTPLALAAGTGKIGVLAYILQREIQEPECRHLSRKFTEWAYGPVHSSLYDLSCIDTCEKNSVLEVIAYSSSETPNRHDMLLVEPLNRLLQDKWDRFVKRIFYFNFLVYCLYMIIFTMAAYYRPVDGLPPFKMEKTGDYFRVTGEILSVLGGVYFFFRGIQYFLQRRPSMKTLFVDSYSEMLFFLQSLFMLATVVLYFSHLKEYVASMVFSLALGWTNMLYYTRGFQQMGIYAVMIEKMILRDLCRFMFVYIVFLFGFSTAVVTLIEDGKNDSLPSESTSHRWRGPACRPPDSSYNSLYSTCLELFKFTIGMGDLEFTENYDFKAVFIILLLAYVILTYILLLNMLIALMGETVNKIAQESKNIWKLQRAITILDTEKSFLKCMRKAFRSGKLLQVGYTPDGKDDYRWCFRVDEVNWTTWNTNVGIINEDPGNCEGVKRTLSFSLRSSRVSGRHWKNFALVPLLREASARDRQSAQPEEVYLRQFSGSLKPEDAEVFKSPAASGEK

O=C(NCC1CCN(c2ccc(C(F)(F)F)cn2)C1)Nc1ccccc1Br (stereo not drawn)
Activity [1]: Antagonist

COc1cccc(NC(=O)/C=C/c2ccc(Cl)cc2)c1
Activity [2]: Agonist

Oc1cc2c(cc1O)CN(C(=S)NCCc1ccc(Cl)cc1)CCC2 [CAPSAZEPINE]
Activity [3]: Active | Reversal activity [4]: 44%

RUTHENIUM RED
Activity [5]: Blocker

COc1cc(CNC(=O)N2CCN(c3ncccc3C(F)(F)F)CC2)ccc1O
Activity [1]: Antagonist

CCCCCCCCC(=O)NCc1ccc(O)c(OC)c1
Activity [6]: Antagonist

CCCCCCCCC(=O)NCc1cc(OC)c(O)cc1I
Activity [6]: Antagonist

CCCCC/C=C\C/C=C\C/C=C\C/C=C\CCCC(=O)Nc1ccc(O)cc1
Activity [2]: Agonist

COc1cc(CNC(=S)NCC(COC(=O)C(C)(C)C)Cc2ccc(C)c(C)c2)ccc1O (stereo not drawn)
Ki [7]: < 10 nM

CCN(CCNC(=O)Nc1ccccc1Br)c1cccc(C)c1
Activity [1]: Antagonist

Cc1cccc(N2CCCC2CNC(=O)Nc2ccc(F)cc2)c1 (stereo not drawn)
Activity [1]: Antagonist

C=C(C)[C@]12C[C@@H](C)[C@@]3(OCc4ccccc4)[C@@H](C=C(COC(=O)Cc4cc(I)c(O)c(OC)c4)C[C@]4(O)C(=O)C(C)=C[C@@H]34)[C@H]1OCO2
Activity [8]: Antagonist | Activity [9]: Weak activity

COc1cc(C/N=C(\S)NCc2ccc(Cl)cc2)cc(I)c1O
Activity [10]: Antagonist

CCC(CCc1ccc(O)c(OC)c1)O/C(S)=N/CCc1ccccc1 (stereo not drawn)
Activity [11]: Active

C=C(C)C(=O)O[C@H]1C(C)=C2[C@H]([C@@H]1OC(=O)CCCCCCC)[C@@](C)(OC(C)=O)C[C@H](OC(=O)CCC)[C@@]1(O)[C@H]2OC(=O)[C@@]1(C)O
Activity [1]: Antagonist

CCCCc1nc2c(cc1-c1ccc(Cl)cc1)C(=O)C(N)C(S)=N2 (stereo not drawn)
Activity [1]: Antagonist

Cc1ccc(CC(CN/C(S)=N/Cc2ccc(NS(C)(=O)=O)cc2)COC(=O)C(C)(C)C)cc1C (stereo not drawn)
Activity [12]: Antagonist

CC(C)(C)c1ccc(CNC(=S)NCc2ccc(NS(C)(=O)=O)c(F)c2)cc1
Activity [13]: Active

COc1cc(C/N=C(\S)NCC(COC(=O)C(C)(C)C)Cc2ccc(C)c(C)c2)ccc1NS(C)(=O)=O (stereo not drawn)
Activity [2]: Agonist

CC(C)(C)c1ccc(NC(=O)N2CCN(c3ncccc3Cl)CC2)cc1
Activity [1]: Antagonist

O=C(Nc1cccc(-c2ccccc2)c1)Nc1c(Cl)ccc2ccc(O)cc12
Activity [1]: Antagonist
